# Where two headings read alike, the source gives them in different places.
# Legend:
# [1] = test system: KB8.5 tumor xenograft; assay: KB8.5 tumor xenograft model (P-gp expressing), tumor response; type: in vivo, mouse; settings: 5 mg/kg, i.v., q4d × 3
# Protocol: Cells were cultured for fewer than 10 passages prior to use. […] All data were expressed as mean and SEM. Between-groups comparisons for final tumor measurements were performed using the one-way ANOVA pair-wise analysis. Significance was determined using Kruskal-Wallis one-way ANOVA on Ranks, followed by appropriate post-hoc test (Dunn's Method or Tukey Test) for multiple pair-wise comparisons. Statistical analysis was carried out using SigmaStat (Systat Software Inc., San Jose, Calif.).
# [2] = Subcutaneous MV4; 11 tumor xenograft model, host response; type: in vivo, mouse
# Protocol: (§1) Subcutaneous tumor efficacy studies were performed using outbred athymic nu/nu mice approximately 6-8 weeks old (Charles River Laboratories, Hollister, Calif.). The efficacy study in the disseminated disease model was performed using immunodeficient NOD-SCID female mice approximately 7-8 weeks old (Jackson Laboratories, Bar Harbor, Me.). […] Routine animal care and assurance of welfare were as described above.
# (§2) The compound IIa (free base) and SB-715992 (free base) were formulated in 20% Captisol for a dose volume of 8 mL/kg. Doses were adjusted to each animal's body weight.
# (§3) For the two efficacy evaluations in the subcutaneous tumor model, 10 million cells combined in a 1:1 mixture of HBSS and Matrigel™ were injected subcutaneously in the right flank in a total volume of 0.2 mL/mouse. […] Tumor volume was calculated as (L×W2)/2.
# [3] = test system: MV4; 11 human AML subcutaneous xenograft tumors; assay: Subcutaneous MV4; 11 tumor xenograft model, tumor response; type: in vivo, mouse
# Protocol: as §1
# Human MV4; 11 acute myelogenous leukemia cells were obtained from American Tissue Culture Collection (catalog #CRL-9591, Rockville, Md.) and tested to be free of Mycoplasma sp. and murine viruses in the IMPACT1 PCR assay panel (RADIL, University of Missouri, Columbia, Mo.). For the disseminated disease model, a stable pool of MV4; 11 cells expressing the luciferase gene was received from Fangxian Sun at the Genomics Institute of the Novartis Research Foundation in San Diego, Calif. (MV4; 11-luc). The MV4; 11 cells were grown in Iscove's modified Dulbecco's medium (Mediatech Inc., catalog #15-016-CV) supplemented with 10% fetal bovine serum (JRH Biosciences, catalog #12003-1000M), 4 mM L-glutamine and 5 ng/mL recombinant human […] (GM-CSF) (R&D Systems, catalog #215-GM). MV4; 11-luc were grown in the same media, but with the addition of 2 micrograms/mL of puromycin for selection of luciferase expression. These cells were grown as suspension cultures, maintained at 37° C. in a humidified atmosphere containing 5% carbon dioxide. Cells were cultured for fewer than 10 passages prior to use. Cells were harvested at approximately 2 million cells/mL, and centrifuged at ˜800×g for 5 minutes at 4° C. and then resuspended in a cold HBSS (Mediatech Inc., catalog #21-021-CV) at a concentration of 25 million cells/mL (containing 50% Matrigel™, BD Biosciences, catalog #354234) for implantation subcutaneously (injection volume of 0.2 mL) or at a concentration of 100 million cells/mL for implantation intravenously (i.v.) via the tail vein (injection volume of 0.1 mL). Mice were irradiated with 3 gray for 3 minutes one day prior to the i.v. cell implant.
# as §2, §3
# [4] = 5 mg/kg, i.v., q4d × 3
# Protocol: Experiments were performed using outbred athymic nu/nu mice (Charles River Laboratories) approximately 6-8 weeks old. Upon arrival, animals received a subcutaneous microchip implant (AVID, Folsom, La.) in the subscapular region for identification of individuals. Animals were allowed to acclimatize for 1 week before any experimental procedures began.
# Compound IIa, compound IIc, compound IIa (shown below), and SB-715992 were formulated in a Captisol®-based formulation. Doses were administered intravenously (i.v.) and adjusted to each animal's body weight. Formulations were made once at the beginning of study and stored at room temperature. Clinical grade paclitaxel was purchased pre-mixed in a cremophor-based vehicle (Mayne Pharma, now Hospira, Lake Forest, Ill., catalog #NDC-6170334209) and diluted in sterile saline to provide a dose volume of 16 mL/kg for a 30 mg/kg dose administered intraperitoneally (i.p.)
# For the efficacy studies, mice were enrolled with a mean tumor volume of approximately 300 mm^3. Tumor xenografts were measured in two dimensions (L and W) with digital calipers twice weekly from the start of dosing on Day 0. Tumor volume was calculated as (L×W^2)/2. Body weights were measured twice weekly and clinical observations were recorded daily. Tumor volume and body weights were captured and stored by StudyDirector software (StudyLog, South San Francisco, Calif.).
# [5] = HCT15 tumor xenograft model, host response; type: in vivo, mouse; settings: q4d × 3, i.v
# Protocol: Routine animal care and assurance of welfare were as described above.
# Treatments for the efficacy studies were initiated 10 days following tumor cell implantation when tumors were approximately 300 mm^3. Compound IIa and SB-715992 were administered intravenously (i.v.) via the tail vein in a volume of 8 mL/kg at the doses indicated. Paclitaxel was administered intraperitoneally (i.p.) in a volume of 16 mL/kg at 30 mg/kg.
# Tumor volume was calculated as (L×W2)/2. […] Data was analyzed as described above.
# [6] = Study 2, 0.13 mg/kg, q4d × 3, i.v
# [7] = Study 2, 0.25 mg/kg, q4d × 3, i.v
# [8] = Study 2, 0.5 mg/kg, q4d × 3, i.v
compound,measurement,setting,value
CC(C)(C)[C@H](c1nc(-c2cc(F)ccc2F)cn1Cc1ccccc1)N(CC[C@H](N)CF)C(=O)CO [Compound IIa],"ΔT/ΔC, Day 11 (%)",[1],19%
same,Survival (alive/total),"[2]; 0.625 mg/kg, q4d × 3, i.v.",4/4
same,Survival (alive/total),"[2]; 4 mg/kg, q4d × 3, i.v.",9/9
same,Survival (alive/total),[2]; [6],9/9
same,Survival (alive/total),[2]; [7],9/9
same,Survival (alive/total),[2]; [8],9/9
same,Survival (alive/total),"[2]; Study 2, 1 mg/kg, q4d × 3, i.v",9/9
same,Survival (alive/total),"[2]; Study 2, 2 mg/kg, q4d × 3, i.v",9/9
same,CR (complete tumor regressions),"[3]; 0.625 mg/kg, q4d × 3, i.v.",0
same,"Δ Tumor volume, Day 24","[3]; 0.625 mg/kg, q4d × 3, i.v.",−32 ± 172 mm^3
same,% Max Regression (Day),"[3]; 0.625 mg/kg, q4d × 3, i.v., D10",69%
same,"Δ Tumor volume, Day 24","[3]; 4 mg/kg, q4d × 3, i.v.",−176 ± 31 mm^3
same,% Max Regression (Day),"[3]; 4 mg/kg, q4d × 3, i.v., D60","100, %"
same,CR (complete tumor regressions),"[3]; 4 mg/kg, q4d × 3, i.v., listed as COMPOUND IIa",9
same,CR (complete tumor regressions),"[3]; 4 mg/kg, q4d × 3, i.v., listed as compound IIa",9/9
same,CR (complete tumor regressions),[3]; [6],0
same,"Δ Tumor volume, Day 21",[3]; [6],921 ± 341 mm^3
same,"ΔT/ΔC, Day 21 (%)",[3]; [6],161%
same,CR (complete tumor regressions),[3]; [7],0
same,"Δ Tumor volume, Day 21",[3]; [7],765 ± 196 mm^3
same,"ΔT/ΔC, Day 21 (%)",[3]; [7],133%
same,CR (complete tumor regressions),[3]; [8],0
same,"Δ Tumor volume, Day 21",[3]; [8],114 ± 110 mm^3
same,"ΔT/ΔC, Day 21 (%)",[3]; [8],20%
same,% Max. Regression (Day),"[3]; Study 2, 0.5 mg/kg, q4d × 3, i.v, D10",55 (D10) %
same,CR (complete tumor regressions),"[3]; Study 2, 1 mg/kg, q4d × 3, i.v",6
same,"Δ Tumor volume, Day 21","[3]; Study 2, 1 mg/kg, q4d × 3, i.v",−194 ± 27 mm^3
same,% Max. Regression (Day),"[3]; Study 2, 1 mg/kg, q4d × 3, i.v, D63",89 (D63) %
same,CR (complete tumor regressions),"[3]; Study 2, 2 mg/kg, q4d × 3, i.v",5
same,"Δ Tumor volume, Day 21","[3]; Study 2, 2 mg/kg, q4d × 3, i.v",−201 ± 23 mm^3
same,% Max. Regression (Day),"[3]; Study 2, 2 mg/kg, q4d × 3, i.v, D63",87 (D63) %
same,Survival (alive/total),[4],9/9
same,"% Max. Δ body weight, (Day)",[4]; D11,−2 (D11) %
same,Survival (alive/total),[5]; 1.25 mg/kg,9/9
same,Survival (alive/total),[5]; 2.5 mg/kg,9/9
same,Survival (alive/total),[5]; 4.0 mg/kg,9/9
